From article PMC8078842 (PLoS Neglected Tropical Diseases, 2021)
Structures can show the parent of a compound that is named as a salt. Where two headings read alike, the source gives them in different places. Bridge positions count the residues as written; N and C are the ends. Ends that are not written are not given here.

Key:
[1] = target: T1, Oxidase, MAO-A-Peripheral (Rattus norvegicus, UniProt P21396); set-up: method as in PERKIN ELMER; details: reference compound of the assay; ref PERKIN ELMER; cited from earlier work
T1 sequence (P21396 1-526): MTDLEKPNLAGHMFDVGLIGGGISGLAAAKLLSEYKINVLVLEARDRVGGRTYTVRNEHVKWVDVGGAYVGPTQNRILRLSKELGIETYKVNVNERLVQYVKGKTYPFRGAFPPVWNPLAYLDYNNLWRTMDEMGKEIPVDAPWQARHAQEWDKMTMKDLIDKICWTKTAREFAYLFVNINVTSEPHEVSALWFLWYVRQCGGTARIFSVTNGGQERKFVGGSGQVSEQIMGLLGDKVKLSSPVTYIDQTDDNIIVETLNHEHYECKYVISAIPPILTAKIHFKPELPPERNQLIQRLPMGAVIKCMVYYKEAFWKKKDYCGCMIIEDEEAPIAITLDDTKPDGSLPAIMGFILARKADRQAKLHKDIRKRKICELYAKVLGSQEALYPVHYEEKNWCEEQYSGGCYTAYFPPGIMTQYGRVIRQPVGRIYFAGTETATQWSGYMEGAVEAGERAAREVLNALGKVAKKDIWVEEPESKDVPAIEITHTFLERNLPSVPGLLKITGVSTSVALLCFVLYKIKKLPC

[2] = target: Melatonin, Non-selective; set-up: method as in PERKIN ELMER; details: reference compound of the assay; ref PERKIN ELMER; cited from earlier work
[3] = target: Sodium, Site 2; set-up: method as in PERKIN ELMER; details: reference compound of the assay; ref PERKIN ELMER; cited from earlier work
[4] = target: Glutamate, Kainate Site (Ionotropic); set-up: method as in PERKIN ELMER; details: reference compound of the assay; ref PERKIN ELMER; cited from earlier work
[5] = tested on: human red blood cells; experiment: Haemolysis assay; assay type: cell-based
Protocol: Haemolysis Assay. The assay is based on the protocol detailed by. To determine the total blood haemoglobin, the CMH method was used to map a standard curve based on the absorption wavelength at 540 nm. Nine calibration standards were produced by preparing a stock solution of 5 mg/ml (standard 1) using haemoglobin standards in CMH reagent and serially diluting it to produce further standards of concentrations 2.5, 1, 0.80, 0.40, 0.20, 0.10, 0.05, and 0.025 mg/ml. 10% Triton X-100 (v/v) was prepared using distilled water to be used as the positive control. A 0.05% solution of DMSO was prepared using distilled water and used as one of the negative controls. 0.9% saline was another negative control. Pluronic samples were prepared in 0.9% saline.
A 5 ml vial of whole blood was centrifuged at 800 g for 15 minutes at room temperature. The supernatant was removed, and the […] was used to determine the plasma free haemoglobin (PFH) concentration.
200 μl x 2 of each of the calibration standards prepared were then transferred onto the 96-well plate and 200 μl x 4 of CMH reagent (control 1). […] After shaking it gently for a few minutes, the absorbance was read at 540 nm. […] 100 μl of CMH reagent was added to all these before measuring the absorbance spectrophotometrically at 540 nm. Using the calibration curve mapped earlier, the haemoglobin concentration in each of the wells was determined. […]

[6] = target: Histamine, H1; set-up: method as in PERKIN ELMER; details: reference compound of the assay; ref PERKIN ELMER; cited from earlier work
[7] = target: Imidazoline, I2 [central]; set-up: method as in PERKIN ELMER; details: reference compound of the assay; ref PERKIN ELMER; cited from earlier work
[8] = target: Glutamate, NMDA Agonist Site (Ionotropic); set-up: method as in PERKIN ELMER; details: reference compound of the assay; ref PERKIN ELMER; cited from earlier work
[9] = target: Glutamate, MK-801 Site (Ionotropic); set-up: method as in PERKIN ELMER; details: reference compound of the assay; ref PERKIN ELMER; cited from earlier work
[10] = target: Muscarinic, Non-selective, Central; set-up: method as in PERKIN ELMER; details: reference compound of the assay; ref PERKIN ELMER; cited from earlier work
[11] = target: Esterase, Acetylcholine; set-up: method as in PERKIN ELMER; details: reference compound of the assay; ref PERKIN ELMER; cited from earlier work
[12] = target: Nitric Oxide, NOS (Neuronal-Binding); set-up: method as in PERKIN ELMER; details: reference compound of the assay; ref PERKIN ELMER; cited from earlier work
[13] = target: Glutamate,NMDA,Glycine (Stry-insens Site) (Ionot); details: read-out: Reference Ki; reference compound of the assay; ref PERKIN ELMER; cited from earlier work
[14] = target: Adenosine, Non-selective; details: read-out: Reference Ki; reference compound of the assay; ref PERKIN ELMER; cited from earlier work
[15] = target: Potassium Channel, Ca2+ Act., VI; set-up: method as in PERKIN ELMER; details: reference compound of the assay; ref PERKIN ELMER; cited from earlier work
[16] = tested on: P-gp (human MDR1); experiment: in vitro; details: dog, UPLC-MS/MS
[17] = target: Adrenergic, Beta, Non-selective; set-up: method as in PERKIN ELMER; details: reference compound of the assay; ref PERKIN ELMER; cited from earlier work
[18] = target: Cholecystokinin, CCK2 (CCKB); set-up: method as in PERKIN ELMER; details: reference compound of the assay; ref PERKIN ELMER; cited from earlier work
[19] = target: GABA A, BDZ, alpha 1 site; details: read-out: Reference Ki; reference compound of the assay; ref PERKIN ELMER; cited from earlier work
[20] = target: Nicotinic, Neuronal (a-BnTx insensitive); set-up: method as in PERKIN ELMER; details: reference compound of the assay; ref PERKIN ELMER; cited from earlier work
[21] = target: Angiotensin II, AT2; set-up: method as in PERKIN ELMER; details: reference compound of the assay; ref PERKIN ELMER; cited from earlier work
[22] = target: Decarboxylase, Glutamic Acid; set-up: method as in PERKIN ELMER; details: reference compound of the assay; ref PERKIN ELMER; cited from earlier work
[23] = cited from earlier work
[24] = target: Corticotropin Releasing Factor, Non-selective; set-up: method as in PERKIN ELMER; details: reference compound of the assay; ref PERKIN ELMER; cited from earlier work
[25] = target: Potassium Channel, ATP-Sensitive; set-up: method as in PERKIN ELMER; details: reference compound of the assay; ref PERKIN ELMER; cited from earlier work
[26] = target: Glycine, Strychnine-sensitive; details: read-out: Reference Ki; reference compound of the assay; ref PERKIN ELMER; cited from earlier work
[27] = target: Glutamate, AMPA Site (Ionotropic); set-up: method as in PERKIN ELMER; details: reference compound of the assay; ref PERKIN ELMER; cited from earlier work
[28] = MDCK-MDR1, pH 7.4, Papp A2B Replicate 1, 10 µM
[29] = MDCK-MDR1, pH 7.4, Papp A2B Replicate 2, 10 µM
[30] = MDCK-MDR1, pH 7.4, Papp B2A Replicate 1, 10 µM
[31] = MDCK-MDR1, pH 7.4, Papp B2A Replicate 2, 10 µM

For `c1cc2c(cc1C1CCCCC1)c1c3n2CCNC3CCC1` (centres unmarked) [Tetrindole mesylate], which Ki [1] is on record?
The Ki was 23.4 nM.

For `CCN1C[C@]2(COC)[C@H](O)C[C@H](OC)[C@@]34[C@@H]5C[C@@]6(O)[C@H](OC(=O)c7ccccc7)[C@@H]5[C@@](OC(C)=O)([C@@H]([C@H](OC)[C@H]23)[C@@H]14)[C@@H](O)[C@@H]6OC` [Aconitine], which Ki [3] is on record?
The Ki was 2290 nM.

With `C=C(C)[C@H]1CN[C@H](C(=O)O)[C@H]1CC(=O)O` [Kainic Acid] as the compound, how does the Ki [4] read?
The Ki was 10.8 nM.

For Triton X-100 [10% Triton X-100], which haemolysis [5] is on record?
The haemolysis was “caused haemolysis”.

For `Cc1ccc(/C(=C\CN2CCCC2)c2ccccn2)cc1` [Triprolidine], which Ki [6] is on record?
Its Ki is 7.33 nM.

With `c1ccc2oc(C3=NCCN3)cc2c1` [2-BFI] as the compound, how does the Ki [7] read?
The Ki was 0.381 nM.

For `CN[C@H](CC(=O)O)C(=O)O` [NMDA], which Ki [8] is on record?
The Ki was 6810 nM.

For (+)-MK-801 HMaleate, which Ki [9] is on record?
The Ki was 12.4 nM.

Which Ki [10] does the source give for `CN1[C@@H]2CC[C@H]1C[C@@H](OC(=O)C(CO)c1ccccc1)C2` (some centres unmarked) [Atropine sulfate] here?
Its Ki is 0.311 nM.

For `CNC(=O)Oc1ccc2c(c1)[C@]1(C)CCN(C)[C@@H]1N2C` [Eserine (Physostigmine)], which Ki [11] is on record?
Its Ki is 385 nM.

With `NC(=NCCC[C@H](N)C(=O)O)N[N+](=O)[O-]` [NOARG (Nitro-L-Arginine)] as the compound, how does the Ki [12] read?
Its Ki is 26.3 nM.

Which Ki [13] does the source give for `O=C(O)/C(=C/c1c(C(=O)O)[nH]c2cc(Cl)cc(Cl)c12)c1ccccc1` [MDL-105,519] here?
Its Ki is 31.5 nM.

With `CCNC(=O)[C@H]1O[C@@H](n2cnc3c(N)ncnc32)[C@H](O)[C@@H]1O` [Neca] as the compound, how does the Ki [14] read?
Its Ki is 7.46 nM.

Which Ki [15] does the source give for “Apamin (CNCKAPETALCARRCQQH-NH2; disulfide 1-11, 3-15; ends not checked; UniProt P01500 28-45, looked up)” here?
The Ki was 0.205 nM.

Which Papp A→B at 1 h, 10 µM [16, 28] does the source give for `COc1cc2nc(N3CCN(C(=O)c4ccco4)CC3)nc(N)c2cc1OC` [prazosin] here?
The Papp A→B at 1 h, 10 µM was 2.48 ×10⁻⁶ cm/s.

What about the Papp A→B at 1 h, 10 µM [16, 29] of the same compound?
The Papp A→B at 1 h, 10 µM was 1.96 ×10⁻⁶ cm/s.

What about the Papp B→A at 1 h, 10 µM [16, 30] of the same compound?
Its Papp B→A at 1 h, 10 µM is 69.5 ×10⁻⁶ cm/s.

What about the Papp B→A at 1 h, 10 µM [16, 31] of the same compound?
The Papp B→A at 1 h, 10 µM was 70.7 ×10⁻⁶ cm/s.

With `C=CCc1ccccc1OCC(O)CNC(C)C` (centres unmarked) [Alprenolol HCl] as the compound, how does the Ki [17] read?
The Ki was 4.55 nM.

For CCK-8 (sulfated), which Ki [18] is on record?
The Ki was 0.307 nM.

With `CCOC(=O)c1ncn2c1CN(C)C(=O)c1cc(F)ccc1-2` [Ro15-1788 (Flumazenil)] as the compound, how does the Ki [19] read?
The Ki was 0.721 nM.

Which Ki [20] does the source give for `Clc1ccc([C@@H]2C[C@H]3CC[C@@H]2N3)cn1` (racemic) [(+/-) Epibatidine] here?
The Ki was 0.0912 nM.

Which Ki [21] does the source give for Angiotensin II (Human) here?
Its Ki is 0.255 nM.

With `NOCC(=O)O` [AminoOxy acetic acid] as the compound, how does the Ki [22] read?
The Ki was 1170 nM.

Which “log P for pyrene/Pluronics” value ([23]; F68) does the source give for `c1cc2ccc3cccc4ccc(c1)c2c34` [pyrene] here?
Its value is “ca. 2.5”.

What about the “log P for pyrene/Pluronics” value ([23]; P105) of the same compound?
The value was roughly 3.5.

For Tyr0-oCRF, which Ki [24] is on record?
The Ki was 10.7 nM.

With `COc1ccc(Cl)cc1C(=O)NCCc1ccc(S(=O)(=O)NC(=O)NC2CCCCC2)cc1` [Glibenclamide] as the compound, how does the Ki [25] read?
The Ki was 0.781 nM.

For `O=C1C[C@@H]2OCC=C3CN4CC[C@]56c7ccccc7N1[C@H]5[C@H]2[C@H]3C[C@H]46` [Strychnine nitrate], which Ki [26] is on record?
The Ki was 28.1 nM.

With `CC(C)NCC(O)COc1cccc2ccccc12` (centres unmarked) [propranolol] as the compound, how does the Papp A→B at 1 h, 10 µM [16, 28] read?
The Papp A→B at 1 h, 10 µM was 34.1 ×10⁻⁶ cm/s.

And the Papp A→B at 1 h, 10 µM [16, 29]?
Its Papp A→B at 1 h, 10 µM is 28 ×10⁻⁶ cm/s.

And the Papp B→A at 1 h, 10 µM [16, 30]?
The Papp B→A at 1 h, 10 µM was 41.4 ×10⁻⁶ cm/s.

What about the Papp B→A at 1 h, 10 µM [16, 31] of the same compound?
Its Papp B→A at 1 h, 10 µM is 41.6 ×10⁻⁶ cm/s.

For `Cc1o[nH]c(=O)c1CC(N)C(=O)O` (racemic) [(+/-) AMPA HBr], which Ki [27] is on record?
The Ki was 90.7 nM.
